# From patent US6379959B1, “Metalocarboxypeptidase inhibitors and derived molecules used as antitumor agents” (Universitat Autonoma de Barcelona, priority 1996, dated 2002)
# Positions of bridges follow the written chain, without caps; N, C: chain ends. No end group written: not given here.
# How the values were obtained:
# [1] = tested on: hamster insulinome cell line HIT; assay: Proliferation test by recount of the cells number (hemocytometer), HIT; format: cell-based; settings: Postadhesion, 4 days
# Description: In this assay and with the aim of determining whether the presence in the culture medium produces some effect on the growth in vitro of the cell lines, the final number of the cells when the control reaches monolayer is determined, in the presence and in the absence of the inhibitor. The calculation is made by direct recount of the number of cells using trypsinization and subsequent recount in a hemocytometer. The detailed method is as follows: 1. In each of the three culture flasks of 25 cm^2, 5×10^5 cells are seed and a total volume of the culture medium is added (DMEM with a 10% of fetal bovine serum or synthetic serum, according to the test) of 5 mL: 2. The cells are maintained in an incubator at 37° C., 87% of relative humidity and 10% of CO2. […] The total number of cells of the W zone of the hemocytometer is counted, differentiating between the live and the dead ones. Based on this recount, the total number of cells that was in the initial suspension (which will be the total number of cells that was in the culture) is calculated by multiplying the number obtained by 2×10^4. The viability (in %) is calculated by dividing the number of live cells by the total number of counted cells and multiplying it by 100. The effect produced by the presence of PCI in the medium is expressed as % of cell growth inhibition, which is calculated according to the formula [formula] […]
# [2] = tested on: human pancreatic adenocarcinoma cell line Capan-1; assay: Apoptosis by DAPI labeling and fluorescence microscope; format: cell-based
# Description: The studies of possible induction of apoptosis by the PCI were done with the human pancreatic adenocarcinoma cell line Capan-1. The detailed procedure that was employed is as follows:
# 1. 5×10^5 cells were seed in the chambers/slides and were cultured for 3 o 4 days (until the moment in which, through microscope observation, they presented 75% of confluence). The cells were cultured in DMEM+10% FBS.
# 2. […] A positive control was added, cysplatinum, at a concentration of 10 μg/mL (a drug which induces apoptosis in various tumor cell lines, Borner, M. M., et al. (1995) Cancer Res., 55: 2122-2128. The incubation period was 24 h.
# 3. The medium was removed after incubation and the chamber was washed with 2 mL of PBS.
# 5. Cells were fixed with 2 mL of 2% formaldehyde for 20 min at 4° C.
# 6. The plates were washed again with 2 mL of PBS for 5 min at room temperature.
# 7. Cell membranes were permeabilized with 0.25% Triton ×100 in PBS for 5 min at 4° C.
# 8. Washed with PBS for 5 min at room temperature.
# 9. The cells were labeled with DAPI at a final concentration of 2 μg/mL for 50 min in darkness at room temperature.
# 10. The preparation was fitted with the fluoroprep medium and it was examined through the fluorescence microscope.
# % apoptosis=(number of apoptotic cells/total number of cells)×100
# [3] = tested on: ribonuclease secreted by Capan-1; assay: Ribonuclease secretion and glycosylation pattern (zymogram); format: cell-based, human; settings: PCI 5 μg/mL, pre and postadhesion; DMEM + BMS 10%
# Excerpt: To verify whether the PCI when affecting cell growth may provoke metabolic changes too, we analysed the changes in a secreted protein, ribonuclease, in the human pancreatic adenocarcinoma cell line Capan-1. Apart from the mentioned material required for cell culture, this analysis was based on the detection of ribonuclease activity by means of the electrophoretic analysis in activity gels (zymograms) (Bravo, J. et al (1994) Anal Biochem., 219: 82-86).
# With this aim in mind, the culture medium of the proliferation tests of Section 4.B.1 was taken. Thus, a culture medium of control cells was provided for cells treated with PCI from the beginning (preanchorage) and for cells treated once they had adhered to the culture surface (postanchorage). Given the fact that the FBS contains bovine ribonuclease which would interfere in our research, these cells grew in DMEM supplemented with BMS at 10%. The procedure was as follows: […]
# At the moment of the analyses, the media were unfrozen in order to have an aliquot of each sample. The concentration of total protein was determined by means of the Bradford method (Bradford, M. M. (1976) Anal. Biochem., 72: 248-254). […]
# The analysis of ribonuclease secretion was done with Capan-1. […] Using the electrophoretic analysis of ribonuclease activity, the pattern of glycosylation of this protein could be observed and a certain quantification could be made.
substance,measurement,setting,value
"PCI: potato carboxypeptidase inhibitor, isoform IIa, obtained by recombinant DNA techniques in E. coli (SEQ ID NO.2) (EQHADPICNKPCKTHDDCSGAWFCQACWNSARTCGPYVG; disulfide 12-27, 18-34, 8-24)",Percentage of Growth Inhibition,[1]; 10 mg PCI/mL,43.0 ± 22.8%
same,Percentage of Growth Inhibition,[1]; 50 mg PCI/mL,60.1 ± 28.3%
same,% Apoptosis,"[2]; 0,1 mg/mL PCI, 24 h (negative control 0.08)",0.11%
same,% Apoptosis,"[2]; 10 mg/mL PCI, 24 h",0.095%
same,% Apoptosis,"[2]; 50 mg/mL PCI, 24 h",0.41%
same,% Apoptosis,"[2]; 200 mg/mL PCI, 24 h",0.038%
same,index of apoptosis relative to the control,"[2]; PCI 50 μg/mL, 24 h",5 times
same,secretion and glycosylation of ribonuclease compared to the control group,[3],higher secretion of ribonuclease with a higher degree of glycosylation
